From paper PMC6585789 (American Journal of Hematology, 2017)
Blank lines part the entries; values can stand above or below the molecule they belong to.

What was measured:
[1] = tested on: subjects with newly diagnosed AML harboring FLT3 mutations; settings: in combination with standard first line chemotherapy; cited from earlier work
[2] = potentially due to induction of metabolizing enzymes; cited from earlier work
[3] = Plasma pharmacokinetics of quizartinib and AC886; assay type: in vivo, human
[4] = tested on: subjects with FLT3‐ITD–mutated AML following HCT; settings: sorafenib maintenance following HCT; cited from earlier work

SMILES: CO[C@@H]1[C@H](N(C)C(=O)c2ccccc2)C[C@H]2O[C@]1(C)n1c3ccccc3c3c4c(c5c6ccccc6n2c5c31)C(=O)NC4 [midostaurin]
- OS benefit [1]: significant OS benefit
- Plasma concentrations during continuous dosing [2]: decrease during continuous dosing

- Plasma trough concentrations reached steady state by ([3]; daily administration): ~15 days
- Mean trough concentration ([3]; from cycle 2 onward, continuous administration): > 300 ng/mL
- Tmax ([3]; human, plasma, oral): 2 to 3.21 h
- Increase in geometric mean AUC0–24 during multiple dosing ([3]; quizartinib, both doses): approximately 5 fold
SMILES: CC(C)(C)c1cc(NC(=O)Nc2ccc(-c3cn4c(n3)sc3cc(OCCN5CCOCC5)ccc34)cc2)no1.Cl.Cl [quizartinib, N‐(5‐tert‐butyl‐isoxazol‐3‐yl)‐N′‐{4‐[7‐(2‐morpholin‐4‐yl‐ethoxy)imidazo[2,1‐b][1, 3]benzothiazol‐2‐yl]phenyl}urea dihydrochloride]

SMILES: CNC(=O)c1cc(Oc2ccc(NC(=O)Nc3ccc(Cl)c(C(F)(F)F)c3)cc2)ccn1 [sorafenib]
- 1‐year OS [4]: 95%
- 1‐year progression‐free survival (PFS) [4]: 85%
